Where two headings read alike, the source gives them in different places.
Assays:
[1] = target: T1, human CB1R (Homo sapiens, UniProt P21554); assay: Human CB receptor binding inhibition ([3H]CP55940), CB1R; details: membranes of CB1R-expressing CHO cells, 0.5 nM [3H]CP55940, 2 hr at 25° C.; read-out: CB receptor binding inhibition Ki CB1
T1 construct: expressed in transfected cells; host or cells: CHO cells (crude membrane fractions)
Description: (§1) The crude membrane fractions were then prepared from the CB1R or CB2R-expressing CHO cells. Receptor binding assay was performed by incubating the membranes with each test compound and 38,000 dpm [^3H]CP55940 (at a final concentration of 0.5 nM: PerkinElmer Life & Analytical Sciences) in the assay buffer (50 mM Tris-HCl, […], 3 mM MgCl2, pH 7.4) containing 0.5% bovine serum albumin (BSA) for 2 hr at 25° C. The incubation mixture was filtered through 1% polyethylenimine (PEI)-treated GF/C glass filter and washed with 50 mM Tris-HCl (pH 7.4) containing 0.1% BSA. The radioactivity was then counted with a liquid scintillation counter. Nonspecific binding was determined in the presence of 10 μM WIN55212-2 (a CBR agonist described in the patent U.S. Pat. No. 508,122, Sigma), and the specific binding was calculated by subtracting the nonspecific binding from the total binding. The IC50 value for each test compound was determined as the concentration at which 50 % of the specific binding was inhibited. As a consequence of these studies, the Ki values of each test compound were determined from the IC50 value and the Kd vale of [^3H]CP55940.

[2] = target: T2, human CB2R (Homo sapiens, UniProt P34972); assay: Human CB receptor binding inhibition ([3H]CP55940), CB2R; details: membranes of CB2R-expressing CHO cells, 0.5 nM [3H]CP55940, 2 hr at 25° C.; read-out: CB receptor binding inhibition Ki CB2
T2 construct: expressed in transfected cells; host or cells: CHO cells (crude membrane fractions)
T2 sequence (P34972 whole entry): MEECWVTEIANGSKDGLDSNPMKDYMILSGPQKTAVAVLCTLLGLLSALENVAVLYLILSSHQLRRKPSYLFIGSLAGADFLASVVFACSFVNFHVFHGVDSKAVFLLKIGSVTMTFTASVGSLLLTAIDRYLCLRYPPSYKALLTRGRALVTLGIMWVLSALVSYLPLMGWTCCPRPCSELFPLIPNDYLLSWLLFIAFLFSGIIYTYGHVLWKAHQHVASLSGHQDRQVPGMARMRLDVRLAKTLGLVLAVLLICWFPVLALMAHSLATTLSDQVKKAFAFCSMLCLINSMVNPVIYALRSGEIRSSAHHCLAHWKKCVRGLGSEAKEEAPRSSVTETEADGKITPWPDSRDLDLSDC
Description: as §1

[3] = target: T1, human CB1R; assay: CBR-mediated suppression of forskolin-stimulated cAMP synthesis, CHO cells expressing CB1R; assay type: cell-based; details: 4 μM forskolin, read-out: Inhibition of cAMP synthesis IC50 CB1
Description: (§2) The CHO cells expressing human CB1R or CB2R were incubated with test compounds for 15 min. After the incubation, 4 μM forskolin (Sigma) was added and the cells were incubated for 20 min. The reaction was stopped by the addition of 1N HCl and the amount of cAMP in the cell supernatant was measured using an Cyclic AMP kit (CIS bio international) according to the manufacture's protocol. The cAMP amount increased by forskolin compared to that in the absence of forskolin was defined as 100%, and the IC50 value of each test compound was determined as the concentration at which 50% of the forskolin-stimulated cAMP synthesis was inhibited.

[4] = target: T2, human CB2R; assay: CBR-mediated suppression of forskolin-stimulated cAMP synthesis, CHO cells expressing CB2R; assay type: cell-based; details: 4 μM forskolin, read-out: Inhibition of cAMP synthesis IC50 CB2
Description: as §2

[5] = test system: formalin-induced hyperalgesia in ICR mice; assay: Inhibitory effect against formalin-induced hyperalgesia in ICR mice; assay type: in vivo; details: Mus musculus, male ICR mice, oral administration 2 h prior to formalin
Description: The inhibitory effects of the compounds of the present invention against formalin-induced hyperalgesia were examined in male ICR mice (5 W). Test compounds were dissolved in sesami oil and applied orally 2 h prior to the subcutaneous formalin injection (2% 20 μL) into the right hind paw. In this experiment, observation period was set to 30 min and divided into two parts, the first 5 minutes immediately after the formalin injection (first phase) and 10 to 30 min minutes after the formalin injection (second phase). The strength for pain sensation was evaluated by the total time for licking and biting behavior. The inhibitory effect of the test compounds on such behavior was evaluated and the ED50 value was calculated.

[6] = test system: compound 48/80-induced pruritus in ICR strain mice; assay: Inhibitory effect on compound 48/80-induced pruritus in ICR strain mice; assay type: in vivo; details: Mus musculus, po, 0.5 h; female ICR strain mice, orally administered once, scratching counted for 30 min; read-out: anti-pruritic effect ED50
Description: The experiment was carried out by the method of Inagaki et al. (Eur J Pharmacol 1999;367:361-371) with some modifications. Briefly, the back of female ICR strain mice was clipped, and compound 48/80 (3 μg/50 μL/site) was injected intradermally to elicit the response. The number of scratching behavior to the injection site by hind paws, which was observed immediately after the injection, was counted for 30 min. Test compounds, dissolved in sesame oil, were orally administered once. […] the injection of compound 48/80 at pre-determine time when the maximal plasma concentration of the compound was obtained. The inhibitory effect against pruritus was evaluated by comparing the number of scratching in the compound-administered group with that in the vehicle-administered group, and then ED50 value was calculated.

[7] = 10 to 30 min after formalin injection, read-out: Inhibitory effect against formalin-induced hyperalgesia (ED50) Second phase
[8] = first 5 minutes after formalin injection, read-out: Inhibitory effect against formalin-induced hyperalgesia (ED50) First phase

T1 sequence (P21554 whole entry): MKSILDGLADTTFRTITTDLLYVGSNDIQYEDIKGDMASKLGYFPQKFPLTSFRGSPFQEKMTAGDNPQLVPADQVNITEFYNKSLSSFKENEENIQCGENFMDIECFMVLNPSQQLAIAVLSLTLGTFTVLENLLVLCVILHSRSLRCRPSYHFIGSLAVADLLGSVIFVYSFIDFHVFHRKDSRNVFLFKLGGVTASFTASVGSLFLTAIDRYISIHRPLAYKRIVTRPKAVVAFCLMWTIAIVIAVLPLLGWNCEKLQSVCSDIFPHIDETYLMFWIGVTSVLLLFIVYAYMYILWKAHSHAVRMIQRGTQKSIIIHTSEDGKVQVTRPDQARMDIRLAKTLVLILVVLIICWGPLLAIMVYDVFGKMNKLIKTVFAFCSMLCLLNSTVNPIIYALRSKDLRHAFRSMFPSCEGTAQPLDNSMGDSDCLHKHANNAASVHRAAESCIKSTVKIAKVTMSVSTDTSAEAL

Row | SMILES | melting point [°C] | Ki [1] [nM] | Ki [2] [nM] | IC50 [3] [nM] | IC50 [4] [nM] | ED50 [5, 7] [mg/kg] | ED50 [5, 8] [mg/kg] | ED50 [6] [mg/kg]
1 | CCCC1(CCC)CSC(=Nc2cccc3ccccc23)N(C(=O)SC)C1 [Compound I-25] | 108.5 to 109.5 | 42.5 | 1 |  |  |  |  | 
2 | CSC(=S)N1CC(C(C)C)(C(C)C)CSC1=Nc1ccc(Cl)c2ccccc12 [Compound I-113] | 86.5 to 87.5 | 10 | 0.9 | 13 | 1.5 |  |  | 
3 | CSC(=S)N1CC2(CCCCC2)CSC1=Nc1ccc(Cl)c2ccccc12 [Compound I-33] | 181 to 182 | 20.7 | 1.2 |  |  |  |  | 
4 | CCCC1(CCC)CSC(=Nc2cccc3ccccc23)N(C(=S)SC)C1 [Compound I-22] | 139 to 140.5 | 20 | 1.5 |  |  |  |  | 
5 | CSC(=O)N1CC(C(C)C)(C(C)C)CSC1=Nc1ccc(F)c2ccccc12 [Compound I-143] | 109 to 110 | 29 | 1.4 | 35 |  |  |  | 
6 | CSC(=S)N1CC2(CCCCC2)CSC1=Nc1cccc2ccccc12 [Compound I-23, 3-[(methylthio)thiocarbonyl]-2-(1-naphthylimino)-5,5-pentamethylene-1,3-thiazine] | 118 to 119 | 29.6 | 6 | 10.4 | 1.7 | 1 | 1.5 | 0.54
7 | CSC(=S)N1CC(C(C)C)(C(C)C)CSC1=Nc1cccc2ccccc12 [Compound I-27] | 121 to 122 | 13 | 0.3 | 8.1 |  |  |  | 
8 | CSC(=S)N1CC2(CCCCC2)CSC1=Nc1ccc(F)c2ccccc12 [Compound I-140] | 139 to 140 | 59 | 0.8 | 27 |  |  |  | 
9 | CSC(=O)N1CC(C(C)C)(C(C)C)CSC1=Nc1ccc(Cl)c2ccccc12 [Compound I-114] | 111.5 to 112.5 | 25 | 5.9 | 24 | 48 |  |  | 
10 | CSC(=S)N1CC2(CCCCC2)CSC1=Nc1ccc(C#N)c2ccccc12 [Compound I-144] | 164 to 165 | 54 | 1 | 52 |  |  |  | 
11 | CSC(=O)N1CC(C(C)C)(C(C)C)CSC1=Nc1cccc2ccccc12 [Compound I-29] | 98 to 99 | 6 | 1.7 | 17.5 |  | 3.5 | 3.6 | 
12 | CSC(=S)N1CC(C(C)C)(C(C)C)CSC1=Nc1ccc(F)c2ccccc12 [Compound I-142] | 118 to 119 | 20 | 1.2 | 14 |  |  |  | 
13 | CSC(=S)N1CC(C(C)C)(C(C)C)CSC1=Nc1cccc2cc(OCC(=O)OC(C)(C)C)ccc12 [Compound I-77] |  | 35 | 1.5 |  |  |  |  | 
14 | C=CCC1(CC=C)CSC(=Nc2cccc3ccccc23)N(C(=S)SC)C1 [Compound I-28] |  | 31.4 | 4.8 |  |  |  |  | 
15 | CSC(=S)N1CC(C(C)C)(C(C)C)CSC1=Nc1ccc(N(C)C)c2ccccc12 [Compound I-43, 3-[(methylthio)thiocarbonyl]-2-(4-dimethylamino-1-naphthylimino)-5,5-diisopropyl-1,3-thiazine] |  | 21.4 | 11.3 |  |  |  |  | 
